Assay results: patent US9045505B2, “Nitric oxide donors” (University of Otago, priority 2006, dated 2015)

Key:
[1] = test system: Langendorff-perfused mouse hearts; assay: Cardiac ischemia-reperfusion injury in Langendorff-perfused mouse hearts (ex vivo)
Experimental: FIG. 16 is a series of graphs showing the vasodilatory and tissue protective effects of MitoSNAP. (a) Dose-response curves for the effect of MitoSNAP and related compounds on blood vessel relaxation. The effects of intact or decomposed MitoSNAP and SNAP on pre-contracted rat thoracic aorta mounted in a myograph were determined Data represent means±sem. For MitoSNAP n=8 from experiments on two independent rat aorta preparations. For decomposed MitoSNAP and SNAP experiments the data (n=4) are from one aorta preparation. (b) EC50 for the effect of MitoSNAP and SNAP on blood vessel relaxation. The EC50 values were determined from experiments shown in (a) above. ***p<0.001 by Student's unpaired t-test. (c & d) MitoSNAP protects against I/R injury in Langendorff-perfused mouse hearts. Hearts from C57BL6 mice were Langendorff perfused and subjected to 25 min global normothermic ischemia followed by 1 h of reperfusion. MitoSNAP or MitoNAP (100 nM final), or vehicle carrier, was added via an infusion port above the aortic cannula during reperfusion. Hearts were then stained with 2,3,5-triphenyltetrazolium chloride (TTC) to visualize infarct. (c) Protection of heart function by MitoSNAP during I/R injury. Left ventricular contractile function was recorded throughout the I/R protocol.
FIG. 18 is a graph showing the effect of pre-ischemic administration of MitoSNAP or MitoNAP on recovery of heart function (rate pressure product) from IR injury. Experiments were carried out exactly as described in FIGS. 16c & 16d, except that MitoSNO1 or MitoNAP were infused into the heart for 20 min, followed by a 2 min wash-out period, prior to the onset of ischemia. White symbols=vehicle control, black symbols=MitoSN01, gray symbols=MitoNAP. Data are means±sem, n≧6. […]
There is considerable evidence pointing to mitochondrial damage during the reperfusion phase of cardiac ischemia-reperfusion (I/R) injury. […] Therefore we determined if MitoSNAP could decrease I/R injury in a mouse heart Langendorff model (FIGS. 16c & d). […]

liver mitochondria = assay: Metabolism of MitoSNAP by mitochondria (RP-HPLC of supernatant); format: in vitro ADME, rat
Experimental: FIG. 9 is a series of traces and graphs showing membrane potential-dependent MitoSNAP mitochondrial uptake and NO^• generation. (a-d) Liver mitochondria were incubated in KCl medium supplemented with rotenone in a stirred 3 ml chamber and electrodes were used to measure the concentrations of O2 and NO^• simultaneously. Where indicated succinate (10 mM), OxyHb (5 μM) or FCCP (500 nM) were added. For (a) and (b) 2 mg mitochondrial protein/ml and 20 μM MitoSNAP (a) or SNAP (b) were used. For (c) and (d) 0.5 mg mitochondrial protein/ml and 5 μM MitoSNAP were used. There was no effect of 5 μM MitoNAP on respiration or NO^• production. All traces are from typical experiments repeated at least twice. […] Mitochondria were then pelleted by centrifugation (10,000×g) then aliquots of the supernatant (700 μl) were mixed with 700 μl 0.1% TFA and analyzed by RP-HPLC. The amount of MitoSNAP and MitoNAP were calculated as the percentage of their peak areas relative to the sum of both peak areas.
MitoSNAP, MitoNAP and their derivatives were separated by reverse phase HPLC (RP-HPLC) on a C18 column (Jupiter 300 Å, Phenomenex) with a Widepore C18 guard column (Phenomenex), using a Gilson 321 pump. […] Peaks were detected at 220 nm using a Gilson UV/VIS 151 spectrophotometer. […]

## CC(=O)NC(C(=O)NCCCCC[P+](c1ccccc1)(c1ccccc1)c1ccccc1)C(C)(C)SN=O.CS(=O)(=O)[O-] (centres unmarked) [MitoSNAP, [5-(2-acetylamino-3-methyl-3-nitrosothio-butyrylamino)-penty1]-triphenylphosphonium methanesulfonate]
[1]; 100 nM during reperfusion
  infarct size: decrease in infarct size
[1]; 100 nM during reperfusion, 25 min ischemia, 1 h reperfusion
  recovery of heart function (rate pressure product): better recovery of heart function
[1]; delivered before the I/R injury
  protection against I/R injury: small degree of protection
Liver mitochondria; energized mitochondria
  conversion of MitoSNAP to MitoNAP: rapidly consumed
Liver mitochondria; unenergized mitochondria (FCCP), compared with energized
  conversion of MitoSNAP to MitoNAP: slower
